Patent US8703210B1, “Adding calcium and bicarbonate to human blood” (Sang Lads, Inc., priority 2005, dated 2014)
Where two headings read alike, the source gives them in different places.

O=C([O-])[O-].[Ca+2] [Calcium carbonate, calcium carbonate]
pH (after carbonic acid (in the form of club soda) is added to the mixture): neutral | pH (calcium carbonate powder dissolved into water): ≤ 9
